Source: ChEMBL document CHEMBL4229455, “Synthesis and anticancer activity of novel bisindolylhydroxymaleimide derivatives with potent GSK-3 kinase inhibition” (Bioorg Med Chem, 2018)

What was measured:
Format in all cases: functional
[1] = tested on: SNB-19; test: Cytotoxicity against human SNB19 cells after 48 hrs by SRB assay; conditions: SNB-19, 48 h
[2] = tested on: HL-60(TB); test: Cytotoxicity against human HL-60(TB) cells assessed as cell growth at 1 uM after 48 hrs by SRB assay relative to control; conditions: HL-60, 48 h, read-out: Activity
[3] = tested on: SW-620; test: Cytotoxicity against human SW620 cells assessed as cell growth at 1 uM after 48 hrs by SRB assay relative to control; conditions: SW-620, 48 h, read-out: Activity
[4] = tested on: HOP-92; test: Cytotoxicity against human HOP92 cells assessed as cell growth at 1 uM after 48 hrs by SRB assay relative to control; conditions: HOP-92, 48 h, read-out: Activity
[5] = tested on: NCI-H460; test: Cytotoxicity against human NCI-H460 cells assessed as cell growth at 1 uM after 48 hrs by SRB assay relative to control; conditions: NCI-H460, 48 h, read-out: Activity
[6] = tested on: UO-31; test: Cytotoxicity against human UO31 cells after 48 hrs by SRB assay; conditions: UO-31, 48 h
[7] = tested on: NCI-H460; test: Cytotoxicity against human NCI-H460 cells assessed as cell growth at 0.1 uM after 48 hrs by SRB assay relative to control; conditions: NCI-H460, 48 h, read-out: Activity
[8] = tested on: SK-OV-3; test: Cytotoxicity against human SKOV3 cells assessed as cell growth at 1 uM after 48 hrs by SRB assay relative to control; conditions: SK-OV-3, 48 h, read-out: Activity
[9] = tested on: SNB-19; test: Cytotoxicity against human SNB19 cells assessed as cell growth at 0.1 uM after 48 hrs by SRB assay relative to control; conditions: SNB-19, 48 h, read-out: Activity
[10] = tested on: CCRF-CEM; test: Cytotoxicity against human CCRF-CEM cells assessed as cell growth at 1 uM after 48 hrs by SRB assay relative to control; conditions: read-out: Activity
[11] = tested on: A498; test: Cytotoxicity against human A498 cells after 48 hrs by SRB assay; conditions: A498, 48 h
[12] = tested on: HOP-92; test: Cytotoxicity against human HOP92 cells after 48 hrs by SRB assay; conditions: HOP-92, 48 h; for CC50: read-out: LC50 (the source's name)
[13] = tested on: SK-OV-3; test: Cytotoxicity against human SKOV3 cells assessed as cell growth at 0.1 uM after 48 hrs by SRB assay relative to control; conditions: SK-OV-3, 48 h, read-out: Activity
[14] = tested on: M14; test: Cytotoxicity against human M14 cells assessed as cell growth at 100 uM after 48 hrs by SRB assay relative to control; conditions: M14, 48 h, read-out: Activity
[15] = tested on: HOP-62; test: Cytotoxicity against human HOP62 cells after 48 hrs by SRB assay; conditions: HOP-62, 48 h; for CC50: read-out: LC50 (the source's name)
[16] = tested on: UACC-62; test: Cytotoxicity against human UACC62 cells assessed as cell growth at 0.01 uM after 48 hrs by SRB assay relative to control; conditions: UACC-62, 48 h, read-out: Activity
[17] = tested on: HCT-15; test: Cytotoxicity against human HCT15 cells assessed as cell growth at 100 uM after 48 hrs by SRB assay relative to control; conditions: HCT-15, 48 h, read-out: Activity
[18] = tested on: MOLT-4; test: Cytotoxicity against human MOLT4 cells assessed as cell growth at 1 uM after 48 hrs by SRB assay relative to control; conditions: MOLT-4, 48 h, read-out: Activity
[19] = tested on: MOLT-4; test: Cytotoxicity against human MOLT4 cells assessed as cell growth at 0.01 uM after 48 hrs by SRB assay relative to control; conditions: MOLT-4, 48 h, read-out: Activity
[20] = tested on: BT-549; test: Cytotoxicity against human BT549 cells assessed as cell growth at 100 uM after 48 hrs by SRB assay relative to control; conditions: BT-549, 48 h, read-out: Activity
[21] = tested on: SN12C; test: Cytotoxicity against human SN12C cells after 48 hrs by SRB assay; conditions: for CC50: read-out: LC50 (the source's name)
[22] = tested on: MCF7; test: Cytotoxicity against human MCF7 cells assessed as cell growth at 1 uM after 48 hrs by SRB assay relative to control; conditions: MCF7, 48 h, read-out: Activity
[23] = tested on: NCI-H522; test: Cytotoxicity against human NCI-H522 cells after 48 hrs by SRB assay; conditions: NCI-H522, 48 h
[24] = tested on: RXF 393; test: Cytotoxicity against human RXF393 cells after 48 hrs by SRB assay; conditions: RXF 393, 48 h
[25] = tested on: CAKI-1; test: Cytotoxicity against human Caki1 cells assessed as cell growth at 0.01 uM after 48 hrs by SRB assay relative to control; conditions: CAKI-1, 48 h, read-out: Activity
[26] = tested on: OVCAR-5; test: Cytotoxicity against human OVCAR5 cells assessed as cell growth at 0.1 uM after 48 hrs by SRB assay relative to control; conditions: OVCAR-5, 48 h, read-out: Activity
[27] = tested on: SNB-75; test: Cytotoxicity against human SNB75 cells assessed as cell growth at 0.1 uM after 48 hrs by SRB assay relative to control; conditions: SNB-75, 48 h, read-out: Activity
[28] = tested on: IGROV-1; test: Cytotoxicity against human IGROV1 cells assessed as cell growth at 100 uM after 48 hrs by SRB assay relative to control; conditions: IGROV-1, 48 h, read-out: Activity
[29] = tested on: SK-MEL-2; test: Cytotoxicity against human SK-MEL-2 cells assessed as cell growth at 0.01 uM after 48 hrs by SRB assay relative to control; conditions: SK-MEL-2, 48 h, read-out: Activity
[30] = tested on: NCI-H522; test: Cytotoxicity against human NCI-H522 cells assessed as cell growth at 0.01 uM after 48 hrs by SRB assay relative to control; conditions: NCI-H522, 48 h, read-out: Activity
[31] = tested on: CCRF-CEM; test: Cytotoxicity against human CCRF-CEM cells after 48 hrs by SRB assay
[32] = tested on: NCI/ADR-RES; test: Cytotoxicity against human NCI-ADR-RES cells assessed as cell growth at 0.01 uM after 48 hrs by SRB assay relative to control; conditions: read-out: Activity
[33] = tested on: T47D; test: Cytotoxicity against human T47D cells assessed as cell growth at 0.01 uM after 48 hrs by SRB assay relative to control; conditions: read-out: Activity
[34] = tested on: A549; test: Cytotoxicity against human A549 cells assessed as cell growth at 0.01 uM after 48 hrs by SRB assay relative to control; conditions: A549, 48 h, read-out: Activity
[35] = tested on: UACC-257; test: Cytotoxicity against human UACC257 cells assessed as cell growth at 0.01 uM after 48 hrs by SRB assay relative to control; conditions: UACC-257, 48 h, read-out: Activity
[36] = tested on: MDA-MB-231; test: Cytotoxicity against human MDA-MB-231 cells assessed as cell growth at 0.1 uM after 48 hrs by SRB assay relative to control; conditions: MDA-MB-231, 48 h, read-out: Activity

Cn1cc(C2=C(c3cn(C)c4ncccc34)C(=O)NC2=O)c2ccccc21
GI50 [1]: 6.31 µM
TGI [1]: 61.1 µM
growth at 1 µM [2]: 113%
growth at 1 µM [3]: 88%
growth at 1 µM [4]: 76%
growth at 1 µM [5]: 89%
GI50 [6]: 2.46 µM
TGI [6]: 25.3 µM
growth at 0.1 µM [7]: 97%
growth at 1 µM [8]: 77%
growth at 0.1 µM [9]: 91%
growth at 1 µM [10]: 85%
GI50 [11]: 0.32 µM
TGI [11]: 2.34 µM
GI50 [12]: 2.54 µM
TGI [12]: 23.4 µM
CC50 [12]: > 100 µM
growth at 0.1 µM [13]: 102%
growth at 100 µM [14]: -67%
GI50 [15]: 3.69 µM
TGI [15]: 36.7 µM
CC50 [15]: > 100 µM
growth at 0.01 µM [16]: 97%
growth at 100 µM [17]: -6%
growth at 1 µM [18]: 101%
growth at 0.01 µM [19]: 103%
growth at 100 µM [20]: -30%
GI50 [21]: 2.31 µM
TGI [21]: 16.2 µM
CC50 [21]: > 100 µM
growth at 1 µM [22]: 73%
GI50 [23]: 5.05 µM
TGI [23]: 32.4 µM
GI50 [24]: 1.95 µM
TGI [24]: 5.32 µM
growth at 0.01 µM [25]: 97%
growth at 0.1 µM [26]: 102%
growth at 0.1 µM [27]: 65%
growth at 100 µM [28]: -10%
growth at 0.01 µM [29]: 109%
growth at 0.01 µM [30]: 90%
GI50 [31]: 2.86 µM
TGI [31]: > 100 µM
growth at 0.01 µM [32]: 101%
growth at 0.01 µM [33]: 89%
growth at 0.01 µM [34]: 99%
growth at 0.01 µM [35]: 104%
growth at 0.1 µM [36]: 104%

N#CCCCCCn1cc(C2=C(c3cn(CCCCCC#N)c4ccccc34)C(=O)N(O)C2=O)c2ccccc21
GI50 [1]: 4.36 µM
LC50 [1]: > 100 µM
TGI [1]: > 100 µM
growth at 1 µM [2]: 100%
growth at 1 µM [3]: 91%
growth at 1 µM [4]: 109%
growth at 1 µM [5]: 101%
GI50 [6]: 1.76 µM
LC50 [6]: > 100 µM
TGI [6]: 90.1 µM
growth at 0.1 µM [7]: 104%
growth at 1 µM [8]: 86%
growth at 0.1 µM [9]: 95%
growth at 1 µM [10]: 83%
GI50 [11]: 2.36 µM
LC50 [11]: > 100 µM
TGI [11]: 86 µM
GI50 [12]: 5.03 µM
TGI [12]: > 100 µM
CC50 [12]: > 100 µM
growth at 0.1 µM [13]: 88%
growth at 100 µM [14]: -25%
GI50 [15]: 7.94 µM
TGI [15]: > 100 µM
CC50 [15]: > 100 µM
growth at 0.01 µM [16]: 95%
growth at 100 µM [17]: 1%
growth at 1 µM [18]: 85%
growth at 0.01 µM [19]: 87%
growth at 100 µM [20]: -26%
GI50 [21]: 8.47 µM
TGI [21]: > 100 µM
CC50 [21]: > 100 µM
growth at 1 µM [22]: 95%
GI50 [23]: 2.59 µM
LC50 [23]: > 100 µM
TGI [23]: 10.5 µM
GI50 [24]: 3.15 µM
LC50 [24]: > 100 µM
TGI [24]: 12.2 µM
growth at 0.01 µM [25]: 98%
growth at 0.1 µM [26]: 89%
growth at 0.1 µM [27]: 72%
growth at 100 µM [28]: -5%
growth at 0.01 µM [29]: 100%
growth at 0.01 µM [30]: 89%
GI50 [31]: 2.73 µM
LC50 [31]: > 100 µM
TGI [31]: > 100 µM
growth at 0.01 µM [32]: 100%
growth at 0.01 µM [33]: 99%
growth at 0.01 µM [34]: 100%
growth at 0.01 µM [35]: 97%
growth at 0.1 µM [36]: 91%
